Test results from ChEMBL document CHEMBL1201862, “PubChem BioAssay data set” (2004).
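96-well plates; 48 h exposure; 5 concentrations. Endpoints by linear interpolation between flanking doses. Not reached: highest tested concentration assigned. GI50 marks 50% less growth.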 Activity calls are given as the source filed them. Rule as the data show it: active = GI50 up to about 1.1 µM and inactive = higher.

Assays:
Assay in all cases: NCI tumour cell line growth inhibition, 48 h
[1] = test system: DMS-273
[2] = test system: SNB-78
[3] = test system: DMS-114
[4] = test system: M19-MEL
[5] = test system: KM-20L2
[6] = test system: LXFL 529
[7] = test system: DLD-1
[8] = test system: RXF 631
[9] = test system: HOP-18

Compound | GI50 [1] | GI50 [2] | GI50 [3] | GI50 [4] | GI50 [5] | GI50 [6] | GI50 [7] | GI50 [8] | GI50 [9]
N#C/C(=C\c1cc(O)c(O)c(O)c1)C(N)=O | > 100 µM (inactive) | > 100 µM (inactive) | > 100 µM (inactive) | 45.3 µM (inactive) | 74.1 µM (inactive) | > 100 µM (inactive) | > 100 µM (inactive) | > 100 µM (inactive) | 
CCN1CCC(O)(c2ccccc2)C(C(=O)c2ccccc2)C1 (configuration not stated) | > 94.4 µM (inactive) | 26.7 µM (inactive) | 29.9 µM (inactive) | 26.7 µM (inactive) | 32 µM (inactive) | 15.6 µM (inactive) | 19.4 µM (inactive) |  | 14.7 µM (inactive)
S=c1sc2sc(=S)sc2s1 | > 100 µM (inactive) | 54.5 µM (inactive) |  | 28.6 µM (inactive) | 70.3 µM (inactive) | 13.6 µM (inactive) | 37.1 µM (inactive) | 18.7 µM (inactive) | > 100 µM (inactive)
NCC1(N2CCOCC2)C2CCCC21CNc1ccccc1 (configuration not stated) | > 100 µM (inactive) | > 100 µM (inactive) | > 100 µM (inactive) | > 100 µM (inactive) |  | > 100 µM (inactive) | > 100 µM (inactive) | > 100 µM (inactive) | > 100 µM (inactive)
C=C(C#N)C1OCC2OC(C)(C)OC21 (configuration not stated) | 19.1 µM (inactive) | 19.7 µM (inactive) | 22.7 µM (inactive) | 22 µM (inactive) |  |  | 17.1 µM (inactive) | 20.9 µM (inactive) | 24.7 µM (inactive)
C=C1CN2CCc3c([nH]c4ccccc34)C2CC1CC(=O)N(C)C (configuration not stated) | > 309 µM (inactive) |  | > 309 µM (inactive) | > 309 µM (inactive) | > 309 µM (inactive) | > 309 µM (inactive) | > 309 µM (inactive) |  | > 309 µM (inactive)
COC1=C(OC)CCC(/C(C#N)=C/c2ccc(OC)c(OC)c2)=C1 | 49.8 µM (inactive) | 53.2 µM (inactive) | 31.6 µM (inactive) | > 100 µM (inactive) | > 100 µM (inactive) | > 100 µM (inactive) | > 100 µM (inactive) | > 100 µM (inactive) | > 100 µM (inactive)
CN(C)/C(=N/C(=O)Nc1ccccc1)SCc1ccccc1 | > 100 µM (inactive) | > 100 µM (inactive) | 67.5 µM (inactive) | > 100 µM (inactive) |  | > 100 µM (inactive) | 65.3 µM (inactive) |  | 64.9 µM (inactive)
O=C(O)CC12C3C4C5C3C1C5C42 (configuration not stated) | > 100 µM (inactive) | > 100 µM (inactive) | > 100 µM (inactive) | > 100 µM (inactive) | > 100 µM (inactive) | > 100 µM (inactive) | > 100 µM (inactive) |  | 
CCCCCCCCCCCCCC1CCC(CC)N1 (configuration not stated) | 14.5 µM (inactive) | 13 µM (inactive) | 7 µM (inactive) | 3.18 µM (inactive) | 13.3 µM (inactive) | 18.2 µM (inactive) | 14.9 µM (inactive) |  | 17.1 µM (inactive)
CC(=O)OC1COC(n2ccc3cc(Br)c([N+](=O)[O-])cc32)C(OC(C)=O)C1OC(C)=O (configuration not stated) | 29.9 µM (inactive) | 20.8 µM (inactive) | 27.7 µM (inactive) | 29.4 µM (inactive) | 31 µM (inactive) | 20 µM (inactive) | 44.3 µM (inactive) | 23.7 µM (inactive) | > 10 µM (inactive)
CC1(Cl)C(=O)NC(=O)N(C2CC(N=[N+]=[N-])C(CO)O2)C1N=[N+]=[N-] (configuration not stated) | > 100 µM (inactive) |  | > 100 µM (inactive) | > 100 µM (inactive) | > 100 µM (inactive) | > 100 µM (inactive) | > 100 µM (inactive) | > 100 µM (inactive) | 
CCOC(=O)C(CNc1ccc(O)cc1)NC(=O)c1ccccc1 (configuration not stated) | 65 µM (inactive) | > 100 µM (inactive) | > 79.8 µM (inactive) | 47 µM (inactive) | > 100 µM (inactive) | 77.3 µM (inactive) | > 100 µM (inactive) |  | > 100 µM (inactive)
CC(=O)/C(=C\c1ccco1)C(=O)Nc1ccccc1 |  | > 100 µM (inactive) | > 100 µM (inactive) | > 100 µM (inactive) |  | > 100 µM (inactive) | > 100 µM (inactive) |  | > 100 µM (inactive)
Cc1ccc(C(=O)Oc2ccccc2)cc1/N=N/N(C)C | 61.9 µM (inactive) | > 100 µM (inactive) |  | > 100 µM (inactive) | 38.3 µM (inactive) | > 100 µM (inactive) | > 100 µM (inactive) |  | 
CCN(CC)c1c(C)nnn1C1OC(COC(C)=O)C(OC(C)=O)C(OC(C)=O)C1OC(C)=O (configuration not stated) | > 10 µM (inactive) | > 100 µM (inactive) | > 100 µM (inactive) | > 100 µM (inactive) | > 100 µM (inactive) | > 100 µM (inactive) | > 100 µM (inactive) | > 100 µM (inactive) | > 100 µM (inactive)
O=C1OC(c2ccccc2)=N/C1=C/N1CCCC1C(=O)O (configuration not stated) | > 100 µM (inactive) | > 100 µM (inactive) | > 100 µM (inactive) | > 100 µM (inactive) | > 100 µM (inactive) | > 100 µM (inactive) | > 100 µM (inactive) | > 100 µM (inactive) | > 100 µM (inactive)
NNC(=O)C1CCC(=O)N1S(=O)(=O)c1ccccc1 (configuration not stated) | > 100 µM (inactive) | > 100 µM (inactive) | > 100 µM (inactive) | > 100 µM (inactive) | > 100 µM (inactive) | > 100 µM (inactive) | > 100 µM (inactive) |  | 
Cc1c2cc[n+](C)cc2c(C)c2c1oc1ccccc12 | 3.57 µM (inactive) | 4.02 µM (inactive) | 1.31 µM (inactive) | 2.64 µM (inactive) | 9.98 µM (inactive) | 1.54 µM (inactive) | 8.57 µM (inactive) |  | 6.82 µM (inactive)
O=C1C=C2S[C@H]3C[C@]2(C=C1Br)C1=C(N3)C(=O)c2[nH]cc3c2C1=NCC3 [(+)-DISCORHABDIN B] | 1.17 µM (inactive) | 1.78 µM (inactive) |  |  | 0.463 µM (active) | 0.19 µM (active) | 0.617 µM (active) |  | 1.78 µM (inactive)
